The source of these data is patent publication US20150168379A1, “METHOD OF IDENTIFYING AND SCREENING DRUG CANDIDATE FOR PREVENTING AND/OR TREATING ISCHEMIC MYOCARDIAL DISEASE” (Macau University of Science and Technology, priority 2013, published 2015).

Entries after “also recorded” stand apart in the source; their conditions may differ.

Series [1] concerns H9C2 cell line. Briefly: Apoptosis rate of myocardial cells under hypoxia and reoxygenation by flow cytometry. The class given is cell-based. Conditions: 3-hour hypoxia and 3-hour reoxygenation. The procedure:
(§1) Myocardial cell lines, H9C2 and HL-1 were respectively seeded into culture dishes. KRB (Krebs-Ringer Bicarbonate buffer) solution replaced normal DMEM medium without the addition of serum. Cells were immediately placed in adjustable hypoxia box (Billups-Rothenberg) connected with gas flowmeter (rate of flow: 25L/min), in which the partial pressure of oxygen in the box was made to decrease from 20 kPa to 0 kPa within one minute. Hypoxia box was placed in a regular incubator for different incubation periods to create hypoxia conditions. […]
(§2) Seven components of protopanaxatriol-type ginsenosides, namely Re, Rf, Rg1, 20(S)-Rg2, 20(R)-Rg2, 20(S)-Rh1 and 20(R)-Rh1, were used to pre-treat myocardial cells. […] The effects of each component on survival, mitochondrial respiration, morphology, and mitochondrial function and movement of myocardial cells were analyzed, and the results thereof were used in candidate agent selection.
(§3) Membrane potential of mitochondria, apoptosis rate, ROS release and cell cytotoxicity of myocardial cells were analyzed by flow cytometry. […] Fluorescence intensity of cells were analyzed by flow cytometry (each sample contains more than 10,000 cells). Cell fluorescence image was analyzed with fluorescence intensity of Rh123 as x-axis and fluorescence intensity of PI as y-axis. […]

For series [2], the target named is T1, Mitofusin 2 (Mfn2) (Mus musculus, UniProt Q80U63).
T1 construct: endogenous in cells; host or cells: myocardial cells under hypoxia and reoxygenation (method text: total protein from mouse myocardial infarction tissue)
T1 sequence (Q80U63 1-757): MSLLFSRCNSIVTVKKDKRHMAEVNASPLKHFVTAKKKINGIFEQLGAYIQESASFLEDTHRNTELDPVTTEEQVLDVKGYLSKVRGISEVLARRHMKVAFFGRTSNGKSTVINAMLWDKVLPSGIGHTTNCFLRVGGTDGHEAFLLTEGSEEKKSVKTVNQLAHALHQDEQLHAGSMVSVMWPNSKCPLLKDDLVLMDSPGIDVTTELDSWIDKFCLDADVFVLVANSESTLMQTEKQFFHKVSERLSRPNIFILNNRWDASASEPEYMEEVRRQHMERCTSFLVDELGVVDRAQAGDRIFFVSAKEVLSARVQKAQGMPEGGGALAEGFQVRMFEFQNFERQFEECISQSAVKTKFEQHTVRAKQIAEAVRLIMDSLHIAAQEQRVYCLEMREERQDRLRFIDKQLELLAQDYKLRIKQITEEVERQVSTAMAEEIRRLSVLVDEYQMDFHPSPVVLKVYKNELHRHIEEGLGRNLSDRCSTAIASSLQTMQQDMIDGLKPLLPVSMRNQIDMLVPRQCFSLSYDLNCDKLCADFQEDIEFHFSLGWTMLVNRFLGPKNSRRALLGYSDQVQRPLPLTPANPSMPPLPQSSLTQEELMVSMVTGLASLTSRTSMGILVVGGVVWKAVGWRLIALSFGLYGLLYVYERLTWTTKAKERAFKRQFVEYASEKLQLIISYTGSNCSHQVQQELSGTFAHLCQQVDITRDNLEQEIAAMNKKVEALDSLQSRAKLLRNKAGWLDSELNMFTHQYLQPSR
Briefly: Binding with mitofusin-2 in myocardial cells under hypoxia and reoxygenation (western blotting). Conditions: FIG. 9.

The subject of series [3] is H9C2 cell line. Kind of series: ROS release (DCFDA, flow cytometer). Format: cell-based. Here is the method: Cells were harvested and a single cell suspension was produced by gently pipetting up and down suspension cells or by fully detaching adherent cells. Cells in culture media were stained with 20 μM DCFDA and incubated for 30 minutes at 37° C. After staining, cells were treated with Rg1, DOX or Sil. Cells were gently pipetted to produce single cell suspension. Cells were then analyzed by flow cytometer in which forward and side scatter gates were established to exclude debris and cellular aggregates from the analysis. DCF was excited by the 488 nm laser and detected at 535 nm (typically FL1). 10,000 cells were analyzed per experimental condition. The whole study was repeated 3 times.
On the technique in general: A flow cytometer gives signals particle by particle.

Series [4] concerns H9C2 cell line. Kind of series: Cell cytotoxicity of myocardial cells under hypoxia and reoxygenation by flow cytometry. The class given is cell-based. Conditions: pretreated, FIG. 5. Here is the method:
as §1, §2, §3

For series [5], the system named is bal-2, procaspase-3, procaspase-9, Akt, and Erk in myocardial cells. Briefly: Expression levels of proteins of the mitochondrial-induced apoptosis pathway by western blotting. The class given is cell-based. Conditions: 100 μM.
The test system of series [6] is H9C2 cell line. Briefly: Mitochondrial membrane potential changes by flow cytometer (JC-1). The class given is cell-based. Here is the method: Myocardial cell lines, H9C2 and HL-1 were respectively seeded into culture dishes. KRB (Krebs-Ringer Bicarbonate buffer) solution replaced normal DMEM medium without the addition of serum. Cells were immediately placed in adjustable hypoxia box (Billups-Rothenberg) connected with gas flowmeter (rate of flow: 25L/min), in which the partial pressure of oxygen in the box was made to decrease from 20 kPa to 0 kPa within one minute. Hypoxia box was placed in a regular incubator for different incubation periods to create hypoxia conditions. Hypoxia box was then opened and the medium was replaced with normal medium containing serum, followed by normal incubation at 37° C. for the time periods corresponding to those in the hypoxia conditions in order to create re-oxygenation conditions.
Seven components of protopanaxatriol-type ginsenosides, namely Re, Rf, Rg1, 20(S)-Rg2, 20(R)-Rg2, 20(S)-Rh1 and 20(R)-Rh1, were used to pre-treat myocardial cells. Each component was dissolved with normal medium and DMSO as co-solvent and used to pre-treat cells one hour before hypoxia. Subsequently, medium was replaced with hypoxia medium. The effects of each component on survival, mitochondrial respiration, morphology, and mitochondrial function and movement of myocardial cells were analyzed, and the results thereof were used in candidate agent selection.
Membrane potential of mitochondria, apoptosis rate, ROS release and cell cytotoxicity of myocardial cells were analyzed by flow cytometry. Upon pre-treatment of cells in different groups with Rg1, Sil (Sildenafil, the positive control drug), DOX (Doxorubicin, a cardiac toxic chemical which can induce H/R damage in myocardial cells) or FCCP (Carbonyl cyanide 4-(trifluoromethoxy) phenylhydrazone), the cells were then treated with hypoxia and reoxygenation conditions, in which the duration of each condition was 3 hours. 1 ml PBS buffer was added into culture dish with mixing. […] Fluorescence intensity of cells were analyzed by flow cytometry (each sample contains more than 10,000 cells). […]

Series [7] relates to H9C2 cell line. Briefly: Survival rate of myocardial cells under hypoxia and reoxygenation (MTT). Format: cell-based. Conditions: H9C2, pre-treated one hour before hypoxia, FIG. 2/3. Here is the method:
as §1
Seven components of protopanaxatriol-type ginsenosides, namely Re, Rf, Rg1, 20(S)-Rg2, 20(R)-Rg2, 20(S)-Rh1 and 20(R)-Rh1, were used to pre-treat myocardial cells. […] The effects of each component on survival, mitochondrial respiration, morphology, and mitochondrial function and movement of myocardial cells were analyzed, and the results thereof were used in candidate agent selection. […]
Optical density (OD) of cells was measured at wavelength of 570 nm by multiple-well plate spectrophotometer. Survival rate of the cells incubated under normal condition was set as 100%, and the survival rate of the blank control group was measured simultaneously as baseline for background subtraction. […]

The mark [8] stands for this setting: 100 μM, compared with the control group.
[9] abbreviates: 200 μM, compared with the control group.

`CC(C)=CCC[C@](C)(O[C@@H]1O[C@H](CO)[C@@H](O)[C@H](O)[C@H]1O)[C@H]1CC[C@]2(C)[C@@H]1[C@H](O)C[C@@H]1[C@@]3(C)CC[C@H](O)C(C)(C)[C@@H]3[C@@H](O[C@@H]3O[C@H](CO)[C@@H](O)[C@H](O)[C@H]3O)C[C@]12C` [Rg1]: the figures for the “Apoptosis rate of myocardial cells” value in series [1] (setting [8]) and in series [1] (200 μM) were “significantly inhibit apoptosis” and “can decrease apoptosis rate; also recorded: significantly inhibit apoptosis”, respectively. The “Binding with Mitofusin 2 (Mfn2) in mitochondria” value in series [2] was “binding with Mitofusin 2 (Mfn2)”. The ROS release result is given as “significantly reduce the release of ROS” in series [3] (setting [8]); “significantly reduce the release of ROS” in series [3] (setting [9]); “can decrease the release of ROS” in series [3] (concentration not given, FIG. 7). Also, the “Cytotoxicity of myocardial cells” value in series [4] is on record as “can decrease the cytotoxicity”. Besides, the “Protection for myocardial cells induced by hypoxia and reoxygenation” value in series [5] is “significant protection”. In addition, the “Mitochondrial membrane potential changes” value in series [6] (setting [8]) was “significantly reduce the decrease of mitochondrial membrane potential changes”; in series [6] (setting [9]) it was “significantly reduce the decrease of mitochondrial membrane potential changes”; in series [6] (JC-1, hypoxia and reoxygenation, concentration not given, FIG. 6), “can inhibit the decrease of mitochondrial membrane potential changes”. Moreover, the “Survival rate of myocardial cells” value in series [7] is recorded as “capable of increasing survival rate”.
